Assay [1] relates to Normal human HEPM fibroblasts. Kind of assay: Cell Mat Assay: density of mat cells (mIC50). The format is cell-based. The protocol: (§1) Compound-induced colony inhibition was assayed by addition of serial dilutions of compound directly to the growth medium 24 h after tumor cell planting, and incubating cells for an additional 14 d to allow colony formation. Assays were terminated by rinsing monolayers twice with phosphate-buffered saline (PBS), fixing the monolayers with a 1% glutaraldehyde solution in PBS, then visualizing tumor cells by staining with X-Gal (Price, J., et al., Lineage analysis in the vertebrate nervous system by retrovirus-mediated gene transfer, Proc. Natl. Acad. Sci.84, 156-160(1987)). […] Both IC50 values were obtained by determining the density of tumor cells and mat cells by visual inspection and enumeration of cells per colony and the number of colonies under the microscope.

The subject of assay [2] is T24-BAG4 human bladder carcinoma cells expressing an activated H-ras gene. As to the kind of experiment: Cell Mat Assay: tumor cell colony inhibition (tIC50). The format is cell-based. Conditions: inhibition of tumor cell growth. The protocol: as §1
For assay [3], the target named is T1, farnesyl protein transferase (FPT), partially purified from rat brain (Rattus norvegicus, UniProt Q02293+Q04631).
T1 construct: were partially purified from rat brain by ammonium sulfate fractionation followed by Q-Sepharose
As to the kind of experiment: Inhibition of farnesyl protein transferase (transfer of [3H]farnesyl to Ras-CVLS). The format is biochemical. The method, boiled down:
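Partially purified farnesyl protein transferase with His6-tagged val12-Ha-Ras-CVLS substrate and [3H]farnesyl pyrophosphate, 30 min at room temperature. Stopped with SDS/TCA, precipitated Ras collected on GF/C filters; percent inhibition relative to DMSO vehicle control.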

Setting [4] is: FPT IC50, Ras-CVLS farnesylation, partially purified rat brain FPT.
The mark [5] stands for this setting: Ras-CVLS farnesylation, partially purified rat brain FPT, read-out: FPT IC50.
Where [6] appears, read: enzyme inhibition, read-out: FPT IC50.

Several values for one entry are separate records, joined by “and”; a condition that tells them apart may be missing. Equal values may be shown once. Read-outs that look alike come from different tables or passages of the source. Where only a bound is given, the exact number is not on record here.

T1 sequence (Q02293 whole entry, one chain of several): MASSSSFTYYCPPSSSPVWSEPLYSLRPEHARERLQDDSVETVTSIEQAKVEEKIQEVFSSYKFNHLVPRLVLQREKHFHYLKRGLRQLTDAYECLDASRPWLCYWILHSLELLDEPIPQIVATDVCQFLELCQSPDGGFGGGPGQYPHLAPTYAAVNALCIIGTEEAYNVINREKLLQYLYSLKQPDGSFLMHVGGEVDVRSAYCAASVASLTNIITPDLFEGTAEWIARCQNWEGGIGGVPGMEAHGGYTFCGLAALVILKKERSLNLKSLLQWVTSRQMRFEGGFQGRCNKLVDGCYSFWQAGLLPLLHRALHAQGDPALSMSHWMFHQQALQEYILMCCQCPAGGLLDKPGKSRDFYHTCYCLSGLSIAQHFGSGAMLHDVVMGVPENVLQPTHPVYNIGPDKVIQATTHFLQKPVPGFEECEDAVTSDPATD

For orientation: IC50 means the concentration at which inhibition is half-maximal. With `O=C(Cc1ccncc1)N1CCC(=C2c3ccncc3CCc3cc(Cl)ccc32)CC1` [160 (5.39)], the half-maximal inhibitory concentration (IC50) was 50 µM in assay [1] and 37 µM in assay [2]. For `O=C(Cc1ccncc1)N1CCC(=C2c3ccc(Cl)cc3CCc3cc(Cl)cnc32)CC1` [180 (5.47)], in that order: above 50 µM and 18 µM.

Regarding `O=C(Nc1ccncc1)N1CCN(C2c3ccc(Cl)cc3CCc3cccnc32)CC1` (centres unmarked) [183 (6.5)], the half-inhibitory concentration (IC50) in assay [1] (Homo sapiens, Fibroblast) worked out at 18 µM; in assay [2] (Homo sapiens), 5 µM. On to `O=C(Cc1cccnc1)N1CCN(C2c3ccc(Cl)cc3CCc3ccc[n+]([O-])c32)CC1` (centres unmarked) [184 (5.60)], for which the IC50 in assay [3] (setting [4]) is 0.91 µM; in assay [1] (Homo sapiens, Fibroblast), above 50 µM; in assay [2] (Homo sapiens), 12.5 µM. For `O=C(C(=O)N1CCC(=C2c3ccc(Cl)cc3CCc3cccnc32)CC1)c1c[nH]c2ccccc12` [219 (5.92)], the IC50 in assay [1] is above 50 µM; in assay [2], 25 µM. For `O=C(Cc1ccccc1[N+](=O)[O-])C(=O)N1CCC(=C2c3ccc(Cl)cc3CCc3cccnc32)CC1` [220 (5.93)] the same measures were above 50 µM and 25 µM. With `O=C(Cc1csc2ccccc12)N1CCC(=C2c3ccc(Cl)cc3CCc3cccnc32)CC1` [221 (5.94)], the half-inhibitory concentration (IC50) was above 50 µM in assay [1] and 6.25 µM in assay [2].

Regarding `O=C(Cc1cccnc1)N1CCN([C@@H]2c3ccc(Cl)cc3CCc3cccnc32)CC1` [223 (5.96)], the IC50 in assay [3] (setting [4]) was 2.1 µM; in assay [1] (Homo sapiens, Fibroblast), above 50 µM; in assay [2] (Homo sapiens), 25 µM.

Turning to `O=C(Cc1cccnc1)N1CCN([C@H]2c3ccc(Cl)cc3CCc3cccnc32)CC1` [223 (5.97)], the concentration for half-maximal inhibition (IC50) in assay [3] (setting [4]) is 0.19 µM and 0.72 µM and 0.61 µM; in assay [1] (Homo sapiens, Fibroblast), above 50 µM; in assay [2] (Homo sapiens), 8 µM.

`CC(=O)N1CCC(CC(=O)N2CCN([C@@H]3c4ccc(Cl)cc4CCc4cccnc43)CC2)CC1` [225 (5.98)]: the 50% inhibitory concentration (IC50) in assay [3] (setting [5]) came to 3.5 µM; in assay [1] (Homo sapiens, Fibroblast), 50 µM; in assay [2] (Homo sapiens), 12.5 µM. On to `CC(=O)N1CCC(C(=O)N2CCN([C@@H]3c4ccc(Cl)cc4CCc4cccnc43)CC2)CC1` [226 (5.100)], for which the IC50 in assay [3] (setting [5]) is 4.1 µM; in assay [1] (Homo sapiens, Fibroblast) it was above 50 µM; in assay [2] (Homo sapiens), 25 µM. As to `O=C(c1ccc([N+](=O)[O-])cc1)N1CCC(=C2c3ccc(Cl)cc3CCc3cccnc32)CC1` [Example 10], the half-inhibitory concentration (IC50) in assay [3] (setting [5]) is 4.3 µM; in assay [1] (Homo sapiens, Fibroblast) it was above 50 µM; in assay [2] (Homo sapiens), 25 µM. On to `O=C(CCCc1ccccc1)N1CCC(=C2c3ccc(Cl)cc3CCc3cccnc32)CC1` [Example 11], for which the concentration for half-maximal inhibition (IC50) in assay [3] (setting [5]) is 4.3 µM; in assay [1] it was above 50 µM; in assay [2] it was above 50 µM. As for `O=C(CSc1ncccn1)N1CCC(=C2c3ccc(Cl)cc3CCc3cccnc32)CC1` [Example 12], the IC50 in assay [3] (setting [5]) is 4.3 µM; in assay [1] (Homo sapiens, Fibroblast) it was above 50 µM; in assay [2] (Homo sapiens), 50 µM. As for `Cc1cnc2c(c1)CCc1cc(Cl)ccc1C2=C1CCN(C(=O)Cc2ccncc2)CC1` [Example 301], the IC50 was 0.04 µM and 0.075 µM in assay [3] (setting [5]); above 50 µM in assay [1] (Homo sapiens, Fibroblast). The molecule `O=C(Cc1ccc[n+]([O-])c1)N1CCN([C@H]2c3ccc(Cl)cc3CCc3cccnc32)CC1` [Example 425-G] displayed a half-maximal inhibitory concentration (IC50) in assay [3] (FPT IC50, enzyme inhibition) of 2.3 µM. For `CN1CCC(CC(=O)N2CCN([C@@H]3c4ccc(Cl)cc4CCc4cccnc43)CC2)CC1` [Example 425-M], in assay [3] (setting [6]), the IC50 turned out to be 1.8 µM. Take `CN1CCC(CC(=O)N2CCN([C@H]3c4ccc(Cl)cc4CCc4cccnc43)CC2)CC1` [Example 425-N]: the IC50 in assay [3] (setting [6]) was found to be 0.64 µM. Same read-out and setting: the figure for `CN1CCCC(CC(=O)N2CCN([C@@H]3c4ccc(Cl)cc4CCc4cccnc43)CC2)C1` (some centres unmarked) [Example 425-R] is 1.7 µM. In the case of `CN1CCCC(CC(=O)N2CCN([C@H]3c4ccc(Cl)cc4CCc4cccnc43)CC2)C1` (some centres unmarked) [Example 425-S], the IC50 in assay [3] (setting [6]) worked out at 0.6 µM. `CN1CCCC(CC(=O)N2CCN(C3c4ccc(Cl)cc4CCc4cc(Br)cnc43)CC2)C1` (centres unmarked) [Example 425-U]: the IC50 in assay [1] (Homo sapiens, Fibroblast) is 10 µM; in assay [2] (Homo sapiens) it was 6.25 µM.

As for `O=C(Nc1ccc[n+]([O-])c1)N1CCN(C2c3ccc(Cl)cc3CCc3cccnc32)CC1` (centres unmarked) [Example 427-A], the IC50 in assay [3] (setting [6]) turned out to be 2.2 µM. Consider `O=C(Nc1cc[n+]([O-])cc1)N1CCN(C2c3ccc(Cl)cc3CCc3cc(Br)cnc32)CC1` (centres unmarked) [Example 427-B], for which the 50% inhibitory concentration (IC50) in assay [3] (setting [6]) came to 0.21 µM. With `O=C(Nc1ccc[n+]([O-])c1)N1CCN(C2c3ccc(Cl)cc3CCc3cc(Br)cnc32)CC1` (centres unmarked) [Example 427-C], in assay [3] (setting [6]), the IC50 was determined as 0.24 µM.

With `O=C(Nc1cc[n+]([O-])cc1)N1CCN(C2c3ccc(Cl)cc3CCc3cccnc32)CC1` (centres unmarked) [Example 427], in assay [3] (setting [6]), the concentration for half-maximal inhibition (IC50) was found to be 1.8 µM. In the case of `O=C(CC1CCCNC1)N1CCN(C2c3ccc(Cl)cc3CCc3cccnc32)CC1` (centres unmarked) [Example 428-A], the IC50 in assay [3] (setting [6]) worked out at 1.1 µM.

Take `CCN1CCC(CC(=O)N2CCN(C3c4ccc(Cl)cc4CCc4cccnc43)CC2)CC1` (centres unmarked) [Example 429]: in assay [3] (setting [6]), the 50% inhibitory concentration (IC50) was found to be 1.27 µM. Still for that read-out and setting: the figure for `COC(=O)N1CCCC(CC(=O)N2CCN(C3c4ccc(Cl)cc4CCc4cccnc43)CC2)C1` (centres unmarked) [Example 430-A] is 7 µM; for `COC(=O)N1CCC(CC(=O)N2CCN(C3c4ccc(Cl)cc4CCc4cccnc43)CC2)CC1` (centres unmarked) [Example 430] it is 1.3 µM; for `CNC(=O)N1CCC(CC(=O)N2CCN(C3c4ccc(Cl)cc4CCc4cccnc43)CC2)CC1` (centres unmarked) [Example 431-A] it is 1.05 µM. Turning to `CCNC(=O)N1CCC(CC(=O)N2CCN(C3c4ccc(Cl)cc4CCc4cccnc43)CC2)CC1` (centres unmarked) [Example 431-B], in assay [3] (setting [6]), the 50% inhibitory concentration (IC50) amounted to 0.92 µM.

Take `CCCNC(=O)N1CCC(CC(=O)N2CCN(C3c4ccc(Cl)cc4CCc4cccnc43)CC2)CC1` (centres unmarked) [Example 431-C]: in assay [3] (setting [6]), the IC50 worked out at 0.88 µM.

As to `CC(C)(C)NC(=O)N1CCC(CC(=O)N2CCN(C3c4ccc(Cl)cc4CCc4cccnc43)CC2)CC1` (centres unmarked) [Example 431-D], the half-inhibitory concentration (IC50) in assay [3] (setting [6]) amounted to 1 µM. The same measure, in the same setting: the result for `CNC(=S)N1CCC(CC(=O)N2CCN(C3c4ccc(Cl)cc4CCc4cccnc43)CC2)CC1` (centres unmarked) [Example 431-E] reads 0.88 µM; that for `NC(=O)N1CCCC(CC(=O)N2CCN(C3c4ccc(Cl)cc4CCc4cccnc43)CC2)C1` (centres unmarked) [Example 431-F], 1.75 µM. On the same count and under the same terms, the result for `CNC(=O)N1CCCC(CC(=O)N2CCN(C3c4ccc(Cl)cc4CCc4cccnc43)CC2)C1` (centres unmarked) [Example 431-G] reads 7 µM; that for `NC(=O)N1CCC(CC(=O)N2CCN(C3c4ccc(Cl)cc4CCc4cccnc43)CC2)CC1` (centres unmarked) [Example 431], 0.82 µM. Same read-out and setting: the figure for `CN1CCCC(NC(=O)N2CCN(C3c4ccc(Cl)cc4CCc4cccnc43)CC2)C1` (centres unmarked) [Example 432] is 0.66 µM.

Consider `N[C@@H](CO)C(=O)N1CCC(CC(=O)N2CCN(C3c4ccc(Cl)cc4CCc4cccnc43)CC2)CC1` (some centres unmarked) [Example 433-A], for which the concentration for half-maximal inhibition (IC50) in assay [3] (setting [5]) turned out to be 1.1 µM. In the case of `CSCC[C@H](N)C(=O)N1CCC(CC(=O)N2CCN(C3c4ccc(Cl)cc4CCc4cccnc43)CC2)CC1` (some centres unmarked) [Example 433-B], the IC50 in assay [3] (setting [5]) worked out at 1.89 µM. As to `NCC(=O)N1CCC(CC(=O)N2CCN(C3c4ccc(Cl)cc4CCc4cccnc43)CC2)CC1` (centres unmarked) [Example 433-C], the 50% inhibitory concentration (IC50) in assay [3] (setting [5]) amounted to 2.5 µM. `C[C@H](N)C(=O)N1CCC(CC(=O)N2CCN(C3c4ccc(Cl)cc4CCc4cccnc43)CC2)CC1` (some centres unmarked) [Example 433]: the IC50 in assay [3] (setting [5]) came out at 2.5 µM. With `COC(=O)c1ccc2c(c1)CCc1cccnc1C2=C1CCN(C(=O)Cc2ccncc2)CC1` [Example 434-A], the concentration for half-maximal inhibition (IC50) in assay [3] (setting [6]) amounted to 3.5 µM. Turning to `NC(=O)c1ccc2c(c1)CCc1cccnc1C2=C1CCN(C(=O)Cc2ccncc2)CC1` [Example 436-D], the IC50 in assay [3] (setting [5]) came to 0.75 µM.

Values taken from patent US20030055065A1, “Tricyclic amide and urea compounds useful for inhibition of G-protein function and for treatment of proliferative diseases” (priority 1993, published 2003).
